Experimental data as given in US20260327317A1, “PROTEASE-CLEAVABLE MOIETIES AND METHODS OF USE THEREOF” (CytomX Therapeutics, Inc., priority 2022, published 2026).
Entries after “also recorded” stand apart in the source; their conditions may differ.

Experiments:
TNBC tumor = experiment: Quantitative zymography (QZ) assay, patient-derived tumor sample; set-up: species or system human (patient-derived); conditions: 20 μg/mL, 37° C, 48 hours
Protocol: (§1) Protease activities in patient-derived tumor samples were evaluated using the quantitative zymography (QZ) assay. […] Tumor tissue samples from two head and neck cancer patients and one triple negative breast cancer (TNBC) patient were analyzed utilizing activatable antibodies of the present disclosure with the CM 6006 (SEQ ID NO: 7).
(§2) The protease activity in the tumor sections of 12 μm thickness was assessed. […] An equal volume of AF647-labeled c225 activatable antibodies prepared at 40 μg/mL in QZ buffer were then added directly onto the tissue containing the buffer to form a mixture and incubated at a final concentration of 20 μg/mL in a humidified chamber at 37° C. for 48 hours.
(§3) Following 48 hours of incubation, supernatants were collected from each incubated mixture and transferred into a well of a 96-well PCR plate for assay by capillary electrophoresis. Each supernatant sample was mixed with Pico Sample Buffer (Perkin Elmer) containing 2-beta-mercaptoethanol at four parts sample and one part of Pico Sample Buffer and then heated at 95° C. for 10 minutes. The composition of each supernatant sample was then assessed using the LabChip GXII Touch (Perkin Elmer) with the HT Pico Protein Express 100 protocol (Perkin Elmer). Protein Express Assay LabChips (Perkin Elmer #760499) were set up using the protocol of the Protein Pico Assay Reagent Kit (Perkin Elmer #760498).

head and neck tumor A = experiment: as above; set-up: species or system human (patient-derived); conditions: 20 μg/mL, 37° C, 48 hours
Protocol: as §1, §2, §3

head and neck tumor B = experiment: as above; set-up: species or system human (patient-derived); conditions: 20 μg/mL, 37° C, 48 hours
Protocol: as §1, §2, §3

[1] = In vivo stability of activatable antibodies in mice (cleaved activatable antibody in plasma); conditions: 10 mg/kg intraperitoneal; for In Vivo % Activation (nu/nu, day 7): day 7, plasma; for in vivo stability vs control, in words: nu/nu mice, day 7, compared to control CM 2001
TMPRSS11 = experiment: In vitro cleavability of activatable antibodies by TMPRSS11 (capillary electrophoresis); format: biochemical, human; conditions: role: substrate; for Cleavability (%) TMPRSS11 (4 h): 500 nM activatable antibody, 10 nM TMPRSS11D, 37° C, pH 7.4; for extent of cleavage by TMPRSS11 vs control CM 2001, in words: 4 h, compared to control CM 2001
[2] = system: human bone marrow aspirates; experiment: In situ stability in human bone marrow aspirates; conditions: 20 μg/mL, 37° C, 21 or 24 hours, N=2 donors, normalized to CM 2001
Protocol: The study provided herein evaluates the in situ stability of activatable antibodies of the present disclosure with the CM 6006 (SEQ ID NO: 7) by human bone marrow aspirates. Fresh human bone marrow aspirates from healthy donors were purchased from Stemcell Technology Inc. (Catalog No. 70502) and AllCells Inc. and were processed to lyse red blood cells and washed 5 times with buffer or serum-free media. […] An equal volume of AF647-labeled c225 activatable antibodies prepared at 40 μg/mL in serum-free RPMI media were then added to form a mixture and incubated at a final concentration of 20 μg/mL at 37° C. for 21 or 24 hours. Cells were pelleted through centrifugation for 5 min at 300×g. Supernatants were collected from each incubated mixture and transferred into a well of a 96-well PCR plate for assay by capillary electrophoresis. Each supernatant sample was mixed with Pico Sample Buffer (Perkin Elmer) containing 2-beta-mercaptoethanol at four parts sample and one part of Pico Sample Buffer and then heated at 95° C. for 10 minutes. Substrate cleavage was measured by capillary electrophoresis using a LabChip® GXII Touch™ system (Perkin Elmer) with the HT Pico Protein Express 100 protocol (Perkin Elmer). Protein Express Assay LabChips (Perkin Elmer #760499) were set up using the protocol of the Protein Pico Assay Reagent Kit (Perkin Elmer #760498).

MT-SP1 [3] = experiment: In vitro cleavability of activatable antibodies by MT-SP1 (capillary electrophoresis); format: biochemical, human; conditions: role: substrate; for Cleavability (%) MT-SP1 (1.5h) / Cleavability (%) MT-SP1 (4 h): 500 nM activatable antibody, 37° C, pH 7.4; for Cleavability (%) MT-SP1 (1.5h): 10 nM MT-SP1, 1.5 h; for Cleavability (%) MT-SP1 (4 h): 10 nM MT-SP1, 4 h; for extent of cleavage by MT-SP1 (matriptase) vs control CM 2001, in words: compared to control CM 2001
[4] = system: H292 (human lung cancer cell line) xenograft tumors; experiment: Intra-tumoral activation assay in H292 xenograft tumors; format: in vivo, human tumor cells in female nu/nu mice; conditions: tumors collected 7 days after dosing, 9 mg/kg intraperitoneal
Protocol: (§4) In this study, H292 (human lung cancer-derived cell line) subcutaneous xenograft tumors in female nu/nu mice of 6-8 weeks of age were grown to an average volume of 117-215 mm^3. […] The mice were then randomized into groups of 8 mice each and each group was dosed intraperitoneally on day 1 with 9 mg/kg of the indicated test article.
Tumors were collected from the mice 7 days after dosing. The tumor tissue was lysed with immunoprecipitation buffer (Pierce) containing HALT protease inhibitor cocktail (Thermo Fisher) and EDTA and lysed using the Barocycler (Pressure Bioscience).

plasmin = experiment: In vitro cleavability of activatable antibodies by plasmin (capillary electrophoresis); format: biochemical, human; set-up: key to Cleavability (%) Plasmin (4 h): “—” indicates below limit of quantification; conditions: role: substrate; for Cleavability (%) Plasmin (4 h): 500 nM activatable antibody, 10 nM plasmin, 37° C; for extent of cleavage by plasmin vs control CM 2001, in words: 4 h, compared to control CM 2001
[5] = system: H292 (human lung cancer cell line) xenograft tumors; experiment: In vivo efficacy in mouse H292 xenograft model; set-up: species or system human tumor cells in female nu/nu mice; conditions: 9 mg/kg intraperitoneal on day 1; nu/nu mice
Protocol: The study provided herein evaluates the in vivo efficacy of activatable antibodies of the present disclosure with CM 6006 (SEQ ID NO: 7) using a mouse H292 (human lung cancer cell line) xenograft model.
as §4

MT-SP1 [6] = experiment: Cleavability kinetics (kcat/KM) of CMs in activatable antibodies with MT-SP1; format: biochemical, human; conditions: role: substrate; compared to control CMs 2001 and 0001

Substance: APRSALAHGLF [compound 5007, reference compound]
- light chain (LC) activation, in words (TNBC tumor): Comparable levels of LC activation
- light chain (LC) activation, in words (head and neck tumor A): Comparable levels of LC activation
- light chain (LC) activation, in words (head and neck tumor B): Comparable levels of LC activation

Substance: LSGRSDNH [compound 0001, reference compound]
- In Vivo % Activation (nu/nu, day 7) [1]: 20%

Substance: SDHQSRS [compound 6006]
- Cleavability (%) TMPRSS11 (4 h) (TMPRSS11): 100.0%
- extent of cleavage by TMPRSS11 vs control CM 2001, in words (TMPRSS11): to a greater extent than the control CM 2001
- In Vivo % Activation (nu/nu, day 7) [1]: 18.4%
- in vivo stability vs control, in words [1]: higher in vivo stability than the activatable antibody with the control CM 2001
- resistance to cleavage in situ in bone marrow, in words [2]: resistance to cleavage in situ in the bone marrow as compared to activatable antibodies with control CMs 2001 (SEQ ID NO: 78), 5007 (APRSALAHGLE; SEQ ID NO: 80) (WO2020118109) and 3001
- Cleavability (%) MT-SP1 (1.5h) (MT-SP1 [3]): 33.1%
- Cleavability (%) MT-SP1 (4 h) (MT-SP1 [3]): 74.1%
- cleavability percentage for MT-SP1 (MT-SP1 [3]; 1.5 h, lower bound stated in text): greater than 30%
- extent of cleavage by MT-SP1 (matriptase) vs control CM 2001, in words (MT-SP1 [3]): substantially cleaved by MT-SP1; also recorded: to a greater extent than the control CM 2001
- light chain (LC) activation, in words (TNBC tumor): Increased LC activation is observed in the activatable antibody with CM 6006 (SEQ ID NO: 7) compared to the activatable antibody with the control CM 3001; also recorded: Comparable levels of LC activation
- light chain (LC) activation, in words (head and neck tumor A): Increased LC activation is observed in the activatable antibody with CM 6006 (SEQ ID NO: 7) compared to the activatable antibody with the control CM 3001; also recorded: Comparable levels of LC activation
- light chain (LC) activation, in words (head and neck tumor B): Comparable levels of LC activation
- intra-tumoral activation, in words [4]: cleaved by proteases present in the tumor resulting in activation of the antibody
- Cleavability (%) Plasmin (4 h) (plasmin; pH 7.4): 15.1%
- extent of cleavage by plasmin vs control CM 2001, in words (plasmin): to a greater extent than the control CM 2001
- in vivo efficacy (tumor volume), in words [5]: in vivo efficacy that is comparable with the activatable antibody with the control CM 2001 (SEQ ID NO: 78) and similar to cetuximab

Substance: ISSGLLSGRSDNH [compound 2001, reference compound]
- Cleavability (%) TMPRSS11 (4 h) (TMPRSS11): 9.8%
- In Vivo % Activation (nu/nu, day 7) [1]: 32.1%
- Cleavability (%) MT-SP1 (1.5h) (MT-SP1 [3]): 10.9%
- Cleavability (%) MT-SP1 (4 h) (MT-SP1 [3]): 19.4%
- Cleavability (%) Plasmin (4 h) (plasmin; below limit of quantification): —

Substance: HQSRS [compound 6001]
- Cleavability (%) TMPRSS11 (4 h) (TMPRSS11): 100.0%
- extent of cleavage by TMPRSS11 vs control CM 2001, in words (TMPRSS11): to a greater extent than the control CM 2001
- cleavability from kcat/KM results vs control CMs, in words (MT-SP1 [6]): higher cleavability by at least MT-SP1 than control CMs 2001 (SEQ ID NO: 78) and 0001 (SEQ ID NO: 77)
- In Vivo % Activation (nu/nu, day 7) [1]: 24.2%
- in vivo stability vs control, in words [1]: higher in vivo stability than the activatable antibody with the control CM 2001
- Cleavability (%) MT-SP1 (1.5h) (MT-SP1 [3]): 56.9%
- Cleavability (%) MT-SP1 (4 h) (MT-SP1 [3]): 100.0%
- extent of cleavage by MT-SP1 (matriptase) vs control CM 2001, in words (MT-SP1 [3]): substantially cleaved by MT-SP1; also recorded: to a greater extent than the control CM 2001
- Cleavability (%) Plasmin (4 h) (plasmin; pH 7.4): 11.1%
- extent of cleavage by plasmin vs control CM 2001, in words (plasmin): to a greater extent than the control CM 2001
